{
  "source": "patent US20240385173A1",
  "about": "“METHODS AND APPARATUS FOR TESTING IMMUNO-ONCOLOGY DRUGS AND BIOLOGICS USING MICROORGANOSPHERES” (Xilis, Inc., priority 2021, published 2024)",
  "key": {"[1]": {"tested_on": "PDX240 bulk organoids and MOSs", "assay": "Cell viability drug response curves, bulk organoids versus MOSs, PDX240", "format": "cell-based, human", "settings": "cell viabilities after 3 days of treatment", "source_text": "In some embodiments, the MOSs may be formed from cell lines grown as part of a Patient Derived Xenograft (PDX). For example, FIGS. 28A-28D illustrate MOSs formed from cultured PDX240 cells. PDX240 cells are a Patient Derived Xenograft (PDX) tumor cell line (numbered 240 based on patient source) that were human tumors grown in immunodeficient mice (PDX) to form in vivo tumors. The xenograft tissue was extracted dissociated, and used to form MOSs as described above. In this example a single cell was included in each MOS as it was formed. […] With progressive time in culture, at least some of the MOSs show the cells dividing and forming structures.\n(§1) Organoids were formed from Patient Derived Xenograft cells (including the PDX240 cells described above and a second PDX cell line, PDX19187) and were compared with MOSs formed using the same cells. The organoids were formed using conventional techniques in which a large mass of MATRIGEL in a well or dish was seeded with cells and cultured until growth was confirmed. MOSs were generated from the traditional organoids.\n(§2) Both traditional (“bulk”) organoids and the MOSs were then treated with the same drugs (e.g., Oxaliplatin or SN38) and cell viabilities were measured after 3 days of treatment."}, "[2]": {"tested_on": "MOSs derived from multiple myeloma (MM) bone marrow biopsies", "assay": "Caspase 3/7 green dye apoptosis assay on multiple myeloma MOSs (Incucyte imaging)", "format": "cell-based, human", "settings": "MM MOSs on day 11, images every 2 hours for 4 days", "description": "FIGS. 44A and 44B show the efficacy of Lenalidomide and Bortezoid on MOSs derived from multiple myeloma (MM) bone marrow biopsies. MM MOSs (on day 11) were treated with Lenalidomine (5 uM) or Bortezoid (2 nM). Caspase 3/7 green dye was added in the assay to monitor apoptosis. Incucyte images were taken every 2 hours for 4 days. […] If this test were run on, for example, traditional bulk organoids, the results would not be reliable (due to the lack of patient immune cells) leading to uncertainty in the best course of action for patient treatment."}, "[3]": {"tested_on": "MOSs from biopsy material", "assay": "Drug effect screen on MOSs generated from biopsy material (Example 3)", "format": "cell-based, human", "settings": "FIGS. 23B, 23C", "description": "(§3) In a similar set of experiments, MOSs were generated from biopsy material (FIG. 23A), and a drug effect screen was performed using the resulting MOSs. […] Thus, the MOSs correlated strongly with patient response to the standard of care drugs. In this case, the patient endured six months of side effects and toxicities that may have been avoided by the predicted response from the MOSs, indicating (within 7-10 days from the biopsy) that the tumor would not respond to these drugs."}, "patient tumor": {"tested_on": "patient tumor", "assay": "Actual response of the patient's tumor to drug treatment", "format": "in vivo, human", "settings": "for patient response to treatment: Example 3 patient, treated with both Oxalipalatin and Irinotecan, after 6 months of treatment", "description": "as §3"}, "[4]": {"tested_on": "tumor MOSs from patient biopsy", "assay": "Drug screen on tumor MOSs generated from a patient biopsy (Example 2)", "format": "cell-based, human", "settings": "FIG. 22B"}, "[5]": {"tested_on": "PDX19187 bulk organoids and MOSs", "format": "cell-based, human", "settings": "PDX19187 (also printed PDO19187, PDZ-19187), cell viabilities after 3 days of treatment", "description": "as §1, §2"}, "traditional cell line": {"tested_on": "traditional cell line", "assay": "Traditional (2D) cell line dosed with drug", "format": "cell-based", "settings": "all dose ranges examined; FIG. 22A", "source_text": "As mentioned above, the MOSs and methods of using them to screen for drug compositions may be used to accurately predict the response of a patient tumor to one or more drug therapies. […] For example, in FIG. 22A-22D, the MOSs, but not a cell line, was able to correlate with patient response."}, "human liver MOSs": {"tested_on": "human liver MOSs", "assay": "Toxicity assay using human liver MOSs", "format": "cell-based", "settings": "10 mM; FIGS. 34A-34B", "source_text": "Similarly, FIGS. 34A-34B also show toxicity assays using human liver MOSs."}, "mouse liver MOSs": {"tested_on": "mouse liver MOSs", "assay": "Toxicity assay using mouse liver MOSs", "format": "cell-based", "settings": "10 mM; FIGS. 33A-33B"}, "[6]": {"tested_on": "MOSs derived from renal tumor biopsy", "assay": "Annexin V apoptosis assay on MOSs derived from a renal tumor biopsy", "format": "cell-based, human", "description": "(§4) Assays of the MOSs for these pulmonary and renal tumor biopsies were prepared with an Annexin V marker to indicate cellular apoptosis. […] If this test were run on, for example, traditional bulk organoids, the results would not be meaningful (due to the lack of patient immune cells) leading to uncertainty in the best course of action for patient treatment."}, "[7]": {"tested_on": "MOSs derived from pulmonary tumor biopsy", "assay": "Annexin V apoptosis assay on MOSs derived from a pulmonary tumor biopsy", "format": "cell-based, human", "description": "as §4\n(§5) Assays of the MOSs for this pulmonary tumor biopsy were prepared with an Annexin V marker to indicate cellular apoptosis. […] If this test were run on, for example, traditional bulk organoids, the results would be less accurate (because ESK1 would not be able to reach its target) leading to uncertainty in the best course of action for patient treatment.\nas §5, with “apoptosis and Cytolight Red dye to indicate tumor infiltrating lymphocytes (TIIs).” for “apoptosis.”, “(due” for “(because ESK1 would not be able”, “the inability of PBMC to penetrate the traditional bulk organoids)” for “reach its target)”\nAssays of the MOSs for this pulmonary tumor biopsy were prepared with an Annexin V marker to indicate cellular apoptosis. […] This is an indication that TIIs can penetrate MOS to kill tumor cells. […]"}},
  "note": "“Also recorded” adds a separate entry of the source. Where two headings read alike, the source gives them in different places.",
  "data": [
    {"molecule": "O=c1[nH]cc(F)c(=O)[nH]1", "note": "[5-FU, Fluorouracil]", "values": [
      {"measurement": "drug response curves of bulk organoids compared with MOSs (cell viability)", "setting": "[1]", "value": "comparable responses"}
    ]},
    {"molecule": "CC(C)C[C@H](NC(=O)[C@H](Cc1ccccc1)NC(=O)c1cnccn1)B(O)O", "note": "[Bortezoid]", "values": [
      {"measurement": "response of MM MOSs in the form of tumor cell apoptosis (Caspase 3/7 green dye)", "setting": "[2]; 2 nM", "value": "does not and not"}
    ]},
    {"molecule": "CCc1c2c(nc3ccc(OC(=O)N4CCC(N5CCCCC5)CC4)cc13)-c1cc3c(c(=O)n1C2)COC(=O)[C@]3(O)CC", "note": "[Irinotecan]", "values": [
      {"measurement": "percent survival of the MOSs in the presence of the drug", "setting": "[3]", "value": "lack of effect"},
      {"measurement": "patient response to treatment", "setting": "patient tumor", "value": "no response"}
    ]},
    {"molecule": "Nc1cccc2c1CN(C1CCC(=O)NC1=O)C2=O", "note": "(stereo not drawn) [Lenalidomide]", "values": [
      {"measurement": "response of MM MOSs in the form of tumor cell apoptosis (Caspase 3/7 green dye)", "setting": "[2]; 5 uM", "value": "good response"},
      {"measurement": "response of MM MOSs in the form of tumor cell apoptosis (Caspase 3/7 green dye)", "setting": "[2]; 5 uM, listed as Lenalidomine", "value": "induces apoptosis"}
    ]},
    {"molecule": "O=C1[O][Pt]2([NH][C@@H]3CCCC[C@H]3[NH]2)[O]C1=O", "note": "[Oxaliplatin]", "values": [
      {"measurement": "cell survival from the tumor MOSs", "setting": "[4]", "value": "significant decreases in cell survival"},
      {"measurement": "percent survival of the MOSs in the presence of the drug", "setting": "[3]", "value": "no change in the percent survival"},
      {"measurement": "drug response curves of bulk organoids compared with MOSs (cell viability)", "setting": "[5]; listed as Oxalipalatin", "value": "comparable response"},
      {"measurement": "effect of drug on traditional cell line", "setting": "traditional cell line", "value": "no effect"},
      {"measurement": "tumor response when patient treated with the drug", "setting": "patient tumor; Example 2 patient, FIGS. 22C (before) and 22D (post treatment)", "value": "responded to treatment"},
      {"measurement": "patient response to treatment", "setting": "patient tumor", "value": "no response"}
    ]},
    {"molecule": "CCc1c2c(nc3ccc(O)cc13)-c1cc3c(c(=O)n1C2)COC(=O)[C@]3(O)CC", "note": "[SN38, 7-Ethyl-10-hydroxy-camptothecin]", "values": [
      {"measurement": "drug response curves of bulk organoids compared with MOSs (cell viability)", "setting": "[1]", "value": "comparable responses"},
      {"measurement": "drug response curves of bulk organoids compared with MOSs (cell viability)", "setting": "[5]", "value": "comparable responses"}
    ]},
    {"molecule": "CC(=O)Nc1ccc(O)cc1", "note": "[acetaminophen]", "values": [
      {"measurement": "effect on tissue in human liver MOSs versus control group", "setting": "human liver MOSs", "value": "significant increase atypical tissue structures (arrows) and debris"},
      {"measurement": "effect on tissue in mouse liver MOSs versus control group", "setting": "mouse liver MOSs", "value": "smaller and contains many dead cells"}
    ]},
    {"molecule": "Nivolumab", "values": [
      {"measurement": "response of MOSs in the form of tumor cell apoptosis (Annexin V marker)", "setting": "[6]", "value": "induces apoptosis; also recorded: good response"},
      {"measurement": "response of MOSs in the form of tumor cell apoptosis (Annexin V marker)", "setting": "[7]", "value": "induces apoptosis; also recorded: good response"}
    ]}
  ]
}
